Measured values: the NIST ThermoML archive (doi:10.1021/je300945r)

F/C=C/C(F)(F)F [trans-1,3,3,3-tetrafluoropropene]
Details	mass density [kg/m3]
323.14 K, 8751 kPa, Liquid, Vibrating tube method	1126.4
323.14 K, 9772 kPa, Liquid, Vibrating tube method	1131.9
323.14 K, 12808 kPa, Liquid, Vibrating tube method	1147.2
323.14 K, 13808 kPa, Liquid, Vibrating tube method	1151.8
323.14 K, 14826 kPa, Liquid, Vibrating tube method	1156.4
323.14 K, 15836 kPa, Liquid, Vibrating tube method	1160.8
323.14 K, 16839 kPa, Liquid, Vibrating tube method	1165
323.14 K, 17853 kPa, Liquid, Vibrating tube method	1169.1
323.14 K, 18870 kPa, Liquid, Vibrating tube method	1173.1
323.14 K, 19877 kPa, Liquid, Vibrating tube method	1177
323.14 K, 20888 kPa, Liquid, Vibrating tube method	1180.8
323.14 K, 25937 kPa, Liquid, Vibrating tube method	1198.3
323.14 K, 26941 kPa, Liquid, Vibrating tube method	1201.5
323.14 K, 29967 kPa, Liquid, Vibrating tube method	1210.9
323.15 K, 10784 kPa, Liquid, Vibrating tube method	1137.3
323.15 K, 11798 kPa, Liquid, Vibrating tube method	1142.3
323.15 K, 21901 kPa, Liquid, Vibrating tube method	1184.5
323.15 K, 22914 kPa, Liquid, Vibrating tube method	1188
323.15 K, 23918 kPa, Liquid, Vibrating tube method	1191.5
323.15 K, 24922 kPa, Liquid, Vibrating tube method	1194.9
323.15 K, 27947 kPa, Liquid, Vibrating tube method	1204.7
323.15 K, 28950 kPa, Liquid, Vibrating tube method	1207.8
323.15 K, 30984 kPa, Liquid, Vibrating tube method	1213.9
323.15 K, 31990 kPa, Liquid, Vibrating tube method	1216.9
323.15 K, 33002 kPa, Liquid, Vibrating tube method	1219.7
323.15 K, 34015 kPa, Liquid, Vibrating tube method	1222.6
324.12 K, 770.9 kPa, Gas, isochoric method	38.462
324.12 K, 771 kPa, Gas, isochoric method	38.462
325.11 K, 605.5 kPa, Gas, isochoric method	28.571
333.07 K, 79.2 kPa, Gas, isochoric method	3.311
333.07 K, 288 kPa, Gas, isochoric method	12.346
333.07 K, 488.2 kPa, Gas, isochoric method	21.739
333.08 K, 180.4 kPa, Gas, isochoric method	7.634
333.09 K, 428.5 kPa, Gas, isochoric method	19.231
333.09 K, 624.8 kPa, Gas, isochoric method	28.571
333.09 K, 685.9 kPa, Gas, isochoric method	32.258
333.09 K, 801.3 kPa, Gas, isochoric method	38.462
333.09 K, 801.4 kPa, Gas, isochoric method	38.462
333.09 K, 875.5 kPa, Gas, isochoric method	43.478
333.1 K, 875.5 kPa, Gas, isochoric method	43.478
333.15 K, 10813 kPa, Liquid, Vibrating tube method	1108.1
333.15 K, 15858 kPa, Liquid, Vibrating tube method	1134.8
333.15 K, 17873 kPa, Liquid, Vibrating tube method	1144.2
333.15 K, 18876 kPa, Liquid, Vibrating tube method	1148.5
333.15 K, 19891 kPa, Liquid, Vibrating tube method	1152.9
333.15 K, 20898 kPa, Liquid, Vibrating tube method	1157
333.15 K, 21900 kPa, Liquid, Vibrating tube method	1161
333.15 K, 22913 kPa, Liquid, Vibrating tube method	1165
333.15 K, 23923 kPa, Liquid, Vibrating tube method	1168.8
333.15 K, 24932 kPa, Liquid, Vibrating tube method	1172.5
333.15 K, 25940 kPa, Liquid, Vibrating tube method	1176.1
333.15 K, 26944 kPa, Liquid, Vibrating tube method	1179.7
333.15 K, 27958 kPa, Liquid, Vibrating tube method	1183
333.15 K, 28967 kPa, Liquid, Vibrating tube method	1186.4
333.15 K, 29982 kPa, Liquid, Vibrating tube method	1189.8
333.15 K, 30988 kPa, Liquid, Vibrating tube method	1193
333.15 K, 31995 kPa, Liquid, Vibrating tube method	1196.1
333.15 K, 33006 kPa, Liquid, Vibrating tube method	1199.3
333.15 K, 34013 kPa, Liquid, Vibrating tube method	1202.3
333.16 K, 1380 kPa, Liquid, Vibrating tube method	1031.7
333.16 K, 1683 kPa, Liquid, Vibrating tube method	1035.2
333.16 K, 2698 kPa, Liquid, Vibrating tube method	1046.3
333.16 K, 3721 kPa, Liquid, Vibrating tube method	1056.4
333.16 K, 4755 kPa, Liquid, Vibrating tube method	1065.6
333.16 K, 5766 kPa, Liquid, Vibrating tube method	1073.9
333.16 K, 6767 kPa, Liquid, Vibrating tube method	1081.5
333.16 K, 7784 kPa, Liquid, Vibrating tube method	1088.8
333.16 K, 8801 kPa, Liquid, Vibrating tube method	1095.7
333.16 K, 9801 kPa, Liquid, Vibrating tube method	1102
333.16 K, 11831 kPa, Liquid, Vibrating tube method	1114
333.16 K, 12847 kPa, Liquid, Vibrating tube method	1119.5
333.16 K, 13849 kPa, Liquid, Vibrating tube method	1124.8
333.16 K, 14855 kPa, Liquid, Vibrating tube method	1129.9
333.16 K, 16870 kPa, Liquid, Vibrating tube method	1139.6
343.03 K, 81.6 kPa, Gas, isochoric method	3.3
343.03 K, 297.5 kPa, Gas, isochoric method	12.346
343.04 K, 81.7 kPa, Gas, isochoric method	3.3
343.04 K, 186.1 kPa, Gas, isochoric method	7.634
343.04 K, 505.6 kPa, Gas, isochoric method	21.739
343.04 K, 648.5 kPa, Gas, isochoric method	28.571
343.05 K, 443.5 kPa, Gas, isochoric method	19.231
343.06 K, 713 kPa, Gas, isochoric method	32.258
343.06 K, 713.1 kPa, Gas, isochoric method	32.258
343.06 K, 913.4 kPa, Gas, isochoric method	43.478
343.06 K, 913.5 kPa, Gas, isochoric method	43.478
343.15 K, 834.9 kPa, Gas, isochoric method	38.462
343.15 K, 835 kPa, Gas, isochoric method	38.462
343.15 K, 1625 kPa, Liquid, Vibrating tube method	984.2
343.15 K, 2607 kPa, Liquid, Vibrating tube method	999.1
343.15 K, 3648 kPa, Liquid, Vibrating tube method	1012.8
343.15 K, 4690 kPa, Liquid, Vibrating tube method	1024.7
343.15 K, 5696 kPa, Liquid, Vibrating tube method	1035.1
343.15 K, 6697 kPa, Liquid, Vibrating tube method	1044.5
343.15 K, 7717 kPa, Liquid, Vibrating tube method	1053.2
343.15 K, 8731 kPa, Liquid, Vibrating tube method	1061.4
